Measurements as given in patent US12240853B2, “Compounds useful in HIV therapy” (GlaxoSmithKline Intellectual Property (No.2) Limited, priority 2019, dated 2025).

Key:
[1] = Example 18 dog PK studies (SC and IM); format: in vivo, beagle dogs; conditions: beagle dog, single SC or IM injection, 5 mg parent/kg
From the text: Example 18 referenced herein was made in accordance with Synthesis B. Six male beagle dogs (+1 spare) were selected from the Testing Facility's colony of non-naïve animals. The animals were assigned to the study based on acceptable health as determined by a Testing Facility veterinarian. Six animals were selected and placed into two groups of three animals each. Fasting of the animals before or after dosing was not required.
On Day 1 each animal in Group 1 received a single intrascapular subcutaneous injection of prepared test article at a target dose level of 5 mg parent/kg in 2% P404/2% PEG3350/PBS (dose concentration 97.36 mg/mL prodrug) and at a dose volume of 0.1 mL/kg. Each animal in Group 2 received a single intramuscular injection of prepared test article in a hind quarter (quadriceps) at a target dose level of 5 mg parent/kg in 2% P404/2% PEG3350/PBS (dose concentration 97.36 mg/mL prodrug) and at a dose volume of 0.1 mL/kg. The animals were manually restrained for dosing and were not sedated. The dose sites were clipped of hair and wiped with alcohol before dosing. […]
The PK plasma samples were analyzed approximately every two weeks by the Testing Facility to determine the concentration of Example 18 (prodrug) and parent using an LC-MS/MS Research Grade Assay (RGA-1) with sensitivity to 0.1 ng/mL. […]

[2] = Example 18 rat PK studies (SC and IM); format: in vivo, Wistar Han rats; conditions: single SC or IM injection, 20 mg parent/kg
From the text: Example 18 referenced herein was made in accordance with Synthesis B. A total of seven naïve male Wistar Han rats, 250-275 g, were received from the supplier equipped with a surgically-implanted jugular vein catheter (JVC) to facilitate blood sample collection during the first several days of the study. Following an acclimation period, the animals were assigned to the study based on acceptable health as determined by a staff veterinarian and catheter patency. Six animals were placed into two groups of 3 rats per group. Fasting of the animals before or after dosing was not required.
On Day 1 each animal in Group 1 received a single intrascapular subcutaneous injection of prepared test article at a target dose level of 20 mg parent/kg and at a dose volume of 0.49 mL/kg. Each animal in Group 2 received a single intramuscular injection of prepared test article into a thigh muscle at a target dose level of 20 mg parent/kg and at a dose volume of 0.49 mL/kg. The animals were manually restrained for dosing and were not sedated. […]
Interim blood samples for PK (Groups 1A and 2A) were collected from the jugular vein catheter or by venipuncture of a jugular vein if the catheter was not patent. […] The PK plasma samples were analyzed every 1-2 weeks by the Testing Facility to determine the concentration of prodrug and parent using an LC-MS/MS Research Grade Assay (RGA-1) with sensitivity to 0.1 ng/mL. […]

[3] = tested on: HIV pseudotyped virus, M184V; format: cell-based; conditions: U373 cells (CD4, CXCR4 or CCR5), luciferase signal after 3 days
[4] = tested on: HIV pseudotyped virus (NL4-3 provirus, luciferase reporter), WT; assay: PSV (pseudotyped virus) assay, WT; conditions: Human immunodeficiency virus 1, NL43, 72 h, read-out: WT IC50
Method: A pseudotyped virus assay (PSV) was used to assess the potency of the HIV inhibitor.
The PSV assay was performed by using U373 cells stably transformed to express human CD4, the primary receptor for HIV entry and either human CXCR4 or human CCR5 which are the co-receptors required for HIV entry as target cells for infection. […] This dose-range was applied to U373 cells and the pre-made pseudotyped virus added. The amount of luciferase signal produced after 3 days of culture was used to reflect the level of pseudotyped virus infection. An IC50, or the concentration of inhibitor required to reduce PSV infection by 50% from the infection containing no inhibitor was calculated. […] IC50 values were determined from a 10 point dose response curve using 3-4-fold serial dilution for each compound, which spans a concentration range>1000 fold.
These values are plotted against the molar compound concentrations using the standard four parameter logistic equation: y=((Vmax*x^n)/(K^n+x^n))+Y2

## C#C[C@]1(COC(=O)CCCCCCCCC)O[C@@H](n2cnc3c(N)nc(F)nc32)C[C@@H]1OC(=O)CCCCCCCCC [Example 18, (2R,3S,5R)-5-(6-amino-2-fluoro-9H-purin-9-yl)-2-((decanoyloxy)methyl)-2-ethynyltetrahydrofuran-3-yl Decanoate]
[1]
  Clinical observations and dose site reactions: All animals appeared normal at the time of each observation and no dose site reactions were observed
[2]
  Clinical observations and dose site reactions: All animals appeared normal at the time of each observation and no dose site reactions were observed
[3]
  IC50: 0.073 µM
[4]
  IC50: 0.01 µM
